Assay results as given in patent US5382679A, “Process for the preparation of glutathione S-acyl derivatives, compounds obtained from said process and an intermediate useful for the preparation thereof” (Boehringer Mannheim Italia S.p.A., priority 1990, dated 1995).

Assays:
[1] = Enzymatic hydrolysis of thioester bond in serum; format: in vitro ADME; details: GSH derivative 0, 16 mM, mean ± SD on 6 tests
Excerpt: (§1) |The enzymatic hydrolysis specific activity of thioester |bond is expressed as -SH released nmoles/min/mg of […]. […] Spontaneous hy- |drolysis of the substrates ranges from 1% to 10% maxi- |mum. […] |sts.

[2] = Enzymatic hydrolysis of thioester bond in cytosol; format: in vitro ADME; details: GSH derivative 0, 16 mM; for enzymatic hydrolysis specific activity of thioester bond, Cytosol: mean ± SD on 6 tests
Excerpt: as §1

SMILES | enzymatic hydrolysis specific activity of thioester bond, Serum [1] | enzymatic hydrolysis specific activity of thioester bond, Cytosol [2] | Ratio (intracellular to extracellular hydrolysis rate, Cytosol/Serum) [2]
CC(=O)SC[C@H](NC(=O)CC[C@H](N)C(=O)O)C(=O)NCC(=O)O [S-acetyl, γ-L-glutamyl-S-acetyl-L-cysteinyl-glycine] | 0 -SH released nmoles/min/mg of | 10,8 ± 1,5 -SH released nmoles/min/mg of | 
CCOC(=O)CNC(=O)[C@H](CSC(=O)c1ccccc1)NC(=O)CC[C@H](N)C(=O)OCC [S-benzoyl-diethylester] | 0,07 ± 0,005 -SH released nmoles/min/mg of | 1,45 ± 0,8 -SH released nmoles/min/mg of | 18,5
CCOC(=O)CNC(=O)[C@H](CSC(=O)c1ccccc1)NC(=O)CC[C@H](N)C(=O)O [S-benzoyl-monoethylester, ethyl γ-L-glutamyl-S-benzoyl-L-cysteinyl glycinate] | 0,10 ± 0,004 -SH released nmoles/min/mg of | 0,6 ± 0,08 -SH released nmoles/min/mg of | 6,0
N[C@@H](CCC(=O)N[C@@H](CSC(=O)Cc1ccccc1)C(=O)NCC(=O)O)C(=O)O [S-phenylacetyl, γ-L-glutamyl-S-phenylacetyl-L-cysteinyl-glycine] | 0,05 ± 0,003 -SH released nmoles/min/mg of | 6,7 ± 0,9 -SH released nmoles/min/mg of | 134,0
CC(C)(C)C(=O)SC[C@H](NC(=O)CC[C@H](N)C(=O)O)C(=O)NCC(=O)O [S-pivaloyl, γ-L-glutamyl-S-pivaloyl-L-cysteinyl-glycine] | 0 -SH released nmoles/min/mg of | 6,9 ± 0,7 -SH released nmoles/min/mg of | 
N[C@@H](CCC(=O)N[C@@H](CSC(=O)c1ccccc1)C(=O)NCC(=O)O)C(=O)O [S-benzoyl, γ-L-glutamyl-S-benzoyl-L-cysteinyl-glycine] | 0,04 ± 0,005 -SH released nmoles/min/mg of | 3,2 ± 1,1 -SH released nmoles/min/mg of | 80,0
